Test results from PMC11056994, “Potentiating Activity of GmhA Inhibitors on Gram-Negative Bacteria” (Journal of Medicinal Chemistry, 2024).
Like-named read-outs stand apart in the source and are kept apart here.

What was measured:
Format in all cases: cell-based
[1] = system: E. coli C7 (018:K1:H7) LPS biosynthesis; assay: Inhibition of bacterial LPS biosynthesis (silver-stained LPS SDS-PAGE); settings: Escherichia coli; E. coli C7 LPS biosynthesis by SDS-PAGE; mean ± SD of 3 experiments for 17 and 24, n = 1 for others; read-out: EC50
Description: The compounds to be tested were prepared in deionized water/DMSO (50/50) solutions and added (25 μL) in sterile culture microtubes. The test bacterial isolate was isolated on tryptic soy agar (TSA) overnight. Isolated colonies were cultured in 10 mL of LB medium at 37 °C up to an OD of typically 0.15. These exponentially growing bacteria were finally diluted to 5 × 10^5 cfu/mL and added in each well (225 μL) for incubation with the compounds at 37 °C for approximately 5 h, up to an OD of ≈0.2–0.4. Some test compounds, e.g., phospho-sugars are actively transported into the bacterial cytosol via the phospho-sugar transporter UhpT (Figure S3). 2.5 μL portion of a 10 mM water solution of glucose-6-phosphate (G6P, 100 μM final concentration, from Sigma) was added in the culture tube in order to induce UhpT expression. LPS extraction: Bacterial cultures were normalized via OD determination, pelleted, and washed with 1 mL of phosphate-buffered-saline (PBS). The pellets were then denatured for 10 min at 95–100 °C in 50 μL of 0.2% sodium dodecyl sulfate (SDS), β-mercaptoethanol 1%, glycerol 36%, Tris 30 mM, pH 7.4, and bromophenol blue 0.001%. Samples were cooled down to room temperature, supplemented with 1.5 μL of proteinase K at 20 mg/mL, incubated for 1 h at 55 °C, and centrifuged for 30 min at 13,000 rpm at 25 °C. The resulting supernatant, containing LPS, was finally analyzed by SDS-PAGE electrophoresis. LPS SDS-PAGE electrophoresis: Polyacrylamide gels (16%/4% acrylamide for separation and concentration, respectively) were prepared, loaded with 8 μL of LPS extracts, and migrated. Silver staining: Gels were incubated overnight in 5% acetic acid/40% ethanol/deionized water, treated by 1% periodic acid/5% acetic acid for 15 min, washed 4 times for 10 min in deionized water, and finally incubated for 18 min in the dark in a silver nitrate solution composed of 56 mL of 0.1 M NaOH (56 mL), 33% aq ammonia (4 mL), 5% AgNO3 (45 mL), and deionized water (195 mL). Gels were then washed extensively in deionized water for 30 min and incubated for 10–15 min (up to LPS band appearance) in the revelation mix composed of 300 mL of deionized water (300 mL), 36.5% formaldehyde (0.3 mL, Fluka), and 2.3 M citric acid (0.1 mL). The revelation was stopped by incubating the gels in 10% acetic acid for 5 min. Gels were finally washed in deionized water, numerized with a Samsung PL51 camera, and analyzed by ImageJ software. The percentage of inhibition of LPS heptosylation was defined as the relative area of the Re-LPS band compared to the cumulated areas of Re-LPS and Core-LPS bands.

E. coli C7 = assay: MIC of the compounds alone on E. coli C7; settings: compound alone, n = 2, read-out: MIC E. coli C7
Description: Then, we investigated the cytotoxicity and the ability of such inhibitors to potentiate the antimicrobial activity of macrolide and rifamycin antibiotics.
(§1) The compound to be tested was diluted in 50 mM HEPES buffer (pH 7.4) from 10 mM stock solution in DMSO. Five microliters of compound dilution or buffer were distributed in a sterile clear round-bottom 96-well polystyrene microplate (Corning). Five microliters of serial 2-fold dilutions of reference antibiotics [Erythromycin (Fluka), Rifampicin (Fluka)] in DMSO were added. An exponentially growing preculture of E. coli C7 (O18:K1:H7) in LB was diluted to 10^4 cfu/mL and supplemented with 100 μM G6P, and 90 μL of this suspension were added to the microplates. After overnight incubation at 37 °C, the MIC of the antibiotics were determined for each test compound concentration as the lowest antibiotic concentration for which no bacterial pellet is visible without magnification.

HepG2 cytotoxicity = settings: human, HepG2 cells; n = 2
Description: HepG2 cells (LGC Promochem, ref HB-8065) in EMEM medium supplemented with fetal bovine serum (10%), Ampicillin (100 mg/L), and Streptomycin (100 mg/L) were plated on cell culture plates (Costar 3596, 2 × 10^4 cells/well) and incubated overnight at 37 °C in 5% CO2. The culture medium was then aspirated and replaced by supplemented EMEM (210 μL including 2% DMSO) containing dilutions of compounds. Plates were incubated overnight at 37 °C in 5% CO2. Cell viability was determined by the Celltiter Aqueous One Cell Proliferation Assay (G3581–80, Promega) according to the manufacturer’s recommendations, using a Multiskan absorption reader (490 nm).

E. coli C7 (O18:K1:H7) [2] = assay: MIC determination of antibiotics combined with a GmhA inhibitor; settings: 17 at 27 mg/L (100 μM), glucose-6-phosphate 100 μM, E. coli C7
Description: as §1

E. coli C7 (O18:K1:H7) [3] = assay: Time-kill kinetics of rifampicin in combination with compound 17
Description: Rifampicin (Fluka) was diluted in DMSO, and the compound to be tested was diluted in water from 50 mM stock solution in 50 mM HEPES buffer, pH 7.4. Ten microliter of DMSO was distributed in sterile 1.5 mL polypropylene microtubes (Eppendorf). 2.5 μL of compound dilution or water, 2.5 μL of Rifampicin or DMSO, 2.5 μL of 10 mM G6P in water (100 μM final concentration), and 230 μL of LB were added to the microtubes. E. coli C7 (O18:K1:H7) was grown in 5 mL of LB broth at 37 °C until mid-log phase. The suspension was then diluted in LB to obtain a 100× inoculum of 5 × 10^7 cfu/mL, 2.5 μL of which were added to each microtube (5 × 10^5 cfu/mL final inoculum). The microtubes were incubated at 37 °C, and aliquots of 10 μL were sampled at 0, 2, 4, 6, 8, and 24 h for bacterial enumeration in duplicate.

[4] = system: E. coli S1 LPS heptosylation; assay: LPS heptosylation inhibition in clinical isolate E. coli S1; settings: Escherichia coli; E. coli S1, ESBL; 100 μM glucose-6-phosphate; n = 1
Description: (§2) Compound 17 was also tested against clinical isolates of E. coli,[…], and K. pneumoniae for its ability to block LPS heptosylation (EC50). As detailed in Table 3, 17 in the presence of the UhpT inducer glucose-6-phosphate (100 μM) is a specific inhibitor of LPS heptosylation against various strains, including multiresistant clinical isolates expressing ESBL, AmpC, or NDM-1.
(§3) The compounds to be tested were prepared in deionized water/DMSO (50/50) solutions and added (25 μL) in sterile culture microtubes. The test bacterial isolate was isolated on tryptic soy agar (TSA) overnight. Isolated colonies were cultured in 10 mL of LB medium at 37 °C up to an OD of typically 0.15. These exponentially growing bacteria were finally diluted to 5 × 10^5 cfu/mL and added in each well (225 μL) for incubation with the compounds at 37 °C for approximately 5 h, up to an OD of ≈0.2–0.4. Some test compounds, e.g., phospho-sugars are actively transported into the bacterial cytosol via the phospho-sugar transporter UhpT (Figure S3). […] The resulting supernatant, containing LPS, was finally analyzed by SDS-PAGE electrophoresis. […] Gels were finally washed in deionized water, numerized with a Samsung PL51 camera, and analyzed by ImageJ software. […]

[5] = system: E. cloacae S2 LPS heptosylation; assay: LPS heptosylation inhibition in clinical isolate E. cloacae S2; settings: Enterobacter cloacae; E. cloacae S2, AmpC; 100 μM glucose-6-phosphate; n = 1
Description: as §2, §3

[6] = system: K. pneumoniae S3 LPS heptosylation; assay: LPS heptosylation inhibition in clinical isolate K. pneumoniae S3; settings: Klebsiella pneumoniae, read-out: EC50 of LPS heptosylation
Description: as §2, §3

O=CN(O)C[C@H](O)[C@H](O)[C@H](O)COP(=O)(O)O [Compound 17]
EC50 [1]: 20 ± 3 µM
MIC (E. coli C7; Escherichia coli, C7): > 1000 µM
MIC (E. coli C7): >1000 µM
CC50 (HepG2 cytotoxicity): > 1000 µM
potentiation of erythromycin (E. coli C7 (O18:K1:H7) [2]): 32 fold
potentiation of rifampicin (E. coli C7 (O18:K1:H7) [2]): 16 fold
effect on bacterial growth, compound alone (E. coli C7 (O18:K1:H7) [3]; 17 300 μM alone or rifampicin 1 mg/L alone): did not alter at all the bacterial growth
bacterial counts at 24 h (E. coli C7 (O18:K1:H7) [3]; 17 (300 μM) combined with rifampicin (1 mg/L), 24 h): no detectable counts
reduction of the bacterial inoculum (E. coli C7 (O18:K1:H7) [3]; 17 (300 μM) combined with rifampicin (1 mg/L), in less than 6 h): more than 3 log
EC50 [4]: 21 µM
EC50 [5]: 18 µM
EC50 [6]: 21 µM
